Data: PMC9939733 (The Journal of Biological Chemistry, 2023)
“And” between values parts separate entries of the source, which are not always exact repeats. Equal entries are not always repeated.

Experiments:
Assay type in all cases: biochemical
R132C/S280F IDH1 = molecular target: T1, R132C/S280F IDH1 (Homo sapiens, UniProt O75874, R132C/S280F); test: Steady-state kinetics, NADPH turnover assay
T1 construct: made in house
Experimental: independent runs, each composed of technical duplicates (n = 2; mean ± SD); c) R132C/S280F IDH1 assays
monitoring NADPH turnover were performed as reported (3). […]

WT IDH2 = molecular target: T2, WT IDH2 (Homo sapiens, UniProt P48735); test: Absorbance assay, WT activity in the presence of equimolar DL-isocitrate (inhibition); settings: […] isocitrate and […] test compound, 75 μM NADP+, 2.0 nM WT IDH2
T2 construct: made in house; host or cells: Sf21 insect cells (cell pellets prepared at Evotec)
T2 sequence (P48735 40-452): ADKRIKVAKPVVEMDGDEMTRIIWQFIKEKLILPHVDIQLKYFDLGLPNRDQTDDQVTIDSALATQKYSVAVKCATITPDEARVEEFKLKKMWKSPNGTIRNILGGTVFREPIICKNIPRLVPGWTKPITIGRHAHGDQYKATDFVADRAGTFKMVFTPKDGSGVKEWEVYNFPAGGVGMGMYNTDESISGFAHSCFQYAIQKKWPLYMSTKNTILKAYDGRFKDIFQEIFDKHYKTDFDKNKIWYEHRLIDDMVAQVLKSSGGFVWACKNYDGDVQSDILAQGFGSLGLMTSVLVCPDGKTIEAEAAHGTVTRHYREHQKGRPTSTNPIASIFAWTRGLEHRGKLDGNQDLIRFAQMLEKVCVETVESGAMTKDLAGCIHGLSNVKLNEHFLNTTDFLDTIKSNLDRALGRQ
Procedure, shortened: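 Values come from four technical replicates per reaction; compound transfer used a simultaneous pipettor and reagent dispensing triggered the start.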

R132H IDH1 = R132H IDH1 (Homo sapiens, UniProt O75874, R132H); test: Steady-state kinetics, absorbance assay; design: made in house; host or cells: Escherichia coli BL21(DE3) pLyS
Experimental: Compounds were dispensed using a CyBio SDW-CW CyBi-Well Simultaneous Pipettor and assay started using a ThermoFisher Multidrop Combi reagent dispenser.
Reactions were performed as technical duplicates, and all assays were carried out in two independent duplicates.

[1] = 0.03 μM enzyme, 50 μM NADPH, 20 mM MgCl2, pH 8.0

Chain of R132H IDH1 (O75874 whole entry R132H): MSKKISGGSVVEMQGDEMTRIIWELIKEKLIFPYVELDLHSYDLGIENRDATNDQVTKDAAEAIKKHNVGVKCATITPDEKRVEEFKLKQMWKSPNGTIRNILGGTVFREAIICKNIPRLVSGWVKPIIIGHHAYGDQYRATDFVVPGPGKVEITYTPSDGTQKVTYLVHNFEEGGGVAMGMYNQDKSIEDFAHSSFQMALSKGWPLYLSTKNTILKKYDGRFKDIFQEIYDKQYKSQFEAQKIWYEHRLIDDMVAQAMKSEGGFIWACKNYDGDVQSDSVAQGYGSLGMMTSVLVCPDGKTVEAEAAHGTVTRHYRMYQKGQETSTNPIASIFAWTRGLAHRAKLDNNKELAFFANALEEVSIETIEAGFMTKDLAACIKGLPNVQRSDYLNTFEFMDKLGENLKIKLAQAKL
T1 sequence (O75874 whole entry R132C/S280F): as the sequence (O75874 whole entry R132H) above, with H132C, S280F counted along it

For `O=C(O)CCC(=O)C(=O)O` [2OG, 2-oxoglutarate, reference compound], the Kmapp (R132C/S280F IDH1) was 0.04 ± 0.01 mM, the “activity [%] (%-substrate conversion after 20 min incubation)” value (WT IDH2) was 91 ± 1% and the Kmapp (R132H IDH1; [1]) was ~ 0.85 mM and 0.85 ± 0.19 mM and 0.85 mM. For the same compound, the kcatapp (R132H IDH1; [1]) was 0.72 ± 0.04 s⁻¹ and 0.5 to 0.7 s⁻¹ and the Vmax (R132H IDH1; experimental value used for Michaelis-Menten simulation, Fig. 3H) was 1.3 µM/min.
